# Patent publication US20260098008A1, “COVALENT, CHEMOGENETIC ACTIVATORS FOR K2P POTASSIUM CHANNELS AND USES THEREOF” (THE REGENTS OF THE UNIVERSITY OF CALIFORNIA, priority 2022, published 2026)
# Changes are numbered by the printed parent chain.
# Legend:
# Assay type in all cases: cell-based
# K2P2.1 (TREK-1) = target: T1, K2P2.1 (TREK-1) (Mus musculus, UniProt P97438); assay: Whole-cell patch clamp in transfected HEK293 cells; conditions: 20 μM; for Fold-activation (I activator/I control): whole-cell currents
# T1 construct: expressed in transfected cells; host or cells: Xenopus laevis oocytes injected with mRNA (pGEMHE/pMO vector)
# T1 sequence (P97438 1-411 isoform P97438-2): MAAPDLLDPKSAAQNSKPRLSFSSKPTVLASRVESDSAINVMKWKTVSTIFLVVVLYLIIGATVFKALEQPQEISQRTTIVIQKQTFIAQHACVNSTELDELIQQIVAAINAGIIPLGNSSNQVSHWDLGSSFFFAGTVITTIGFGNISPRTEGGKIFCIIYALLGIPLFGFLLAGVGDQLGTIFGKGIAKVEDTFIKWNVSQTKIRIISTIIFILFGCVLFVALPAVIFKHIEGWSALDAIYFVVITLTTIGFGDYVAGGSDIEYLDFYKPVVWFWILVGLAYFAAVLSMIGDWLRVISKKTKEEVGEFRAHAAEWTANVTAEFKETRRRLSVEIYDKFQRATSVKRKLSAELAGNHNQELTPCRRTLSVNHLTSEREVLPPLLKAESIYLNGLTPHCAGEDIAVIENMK
# Description: (§1) Mouse K2P2.1 (TREK-1) (Genbank accession number: NP_034737.2), mouse K2P10.1 (TREK-2) (NM_001316665.1), mouse K2P4.1 (TRAAK) (NM_008431.3), human K2P4.1 (TRAAK) (NM_033310.2) and mouse K2P18.1(TRESK) (NM_207261.3) were used for this study. Point mutations were introduced by site-directed mutagenesis using custom primers and confirmed by sequencing before use. For studies using Xenopus oocytes, K2P channels were subcloned into a previously reported pGEMHE/pMO vector (46). For expression in HEK293 cells, mouse K2P2.1 (TREK-1) and mutants were expressed from a previously described pIRES2-EGFP vector in HEK293 cells (46,47). K2P2.1 (TREK-1) tandems were constructed by connecting the open reading frames for the individual subunits with a linker encoding the […] (SEQ ID NO: 19) sequence. Tandems used for HEK293 cells included an N-terminal HA tag ([…] (SEQ ID NO: 20)) on the first subunit.
# 50% confluent cells were co-transfected (in 35-mm diameter wells) with 10-100 ng of the K2P2.1 plasmid and 400 ng of an eGFP plasmid (for visualization) using LipofectAMINE 2000 (Invitrogen) for 24 h, after which the cells were either plated onto coverslips or the media exchanged with fresh media. Cells were plated onto Matrigel coated coverslips (BD Biosciences) 1-2 hours before experiments.
# Whole-cell patch-clamp experiments with K2P2.1(TREK-1) and mutants were carried out 24-48 h after transfection. Acquisition and analysis for voltage-clamp experiments were performed using pCLAMP10 and an Axopatch 200B amplifier (Molecular Devices). Current-clamp experiments were acquired using an […] amplifier (Molecular Devices). Pipettes were pulled using a Flaming/Brown micropipette puller (P-97, Sutter Instruments) and flame-polished using a MF-830 microforge (Narishige). Electrode resistance after filling with pipette internal solution ranged from 2 to 5 MΩ. Currents were low-pass filtered at 2 kHz and sampled at 10 kHz. Pipette solution contained the following: 145 mM KCl, 3 mM MgCl2, 5 mM EGTA and 20 mM HEPES (pH 7.2 with KOH). Bath solution contained the following: 145 mM NaCl, 5 mM KCl, 1 mM CaCl2, 3 mM MgCl2 and 20 mM HEPES (pH 7.4 with NaOH). K2P2.1 currents were elicited by a 1 s ramp from −100 to +50 mV from a −80 mV holding potential. Current-clamp recordings were taken with no holding current (I=0). Only K2P2.1(TREK-1)^CG* whole-cell patches with basal currents between […] at 0 mV were used Criteria for A286F K2P2.1(TREK-1)^CG*. ML335 or CAT335 were applied at 20 μM in bath solution and were perfused at 3 ml min^−1 until potentiation stabilized (1-3 min). Data were analyzed using Clampfit 11 and GraphPad Prism 9.
# [1] = target: T2, CG*-WT tandem K2P2.1 (TREK-1) (Mus musculus, UniProt P97438, S146C); assay: Single channel recordings from HEK293 cells in cell attached mode; conditions: 20 μM; for Change of open probability (Po activator/Po control): cell-attached, -100 mV
# T2 construct: expressed in transfected cells; host or cells: Xenopus laevis oocytes injected with mRNA
# T2 sequence (P97438 1-411 isoform P97438-2 S131C): T1 sequence (P97438 1-411 isoform P97438-2) with S131C
# T2 sequence (P97438 1-411 isoform P97438-2): T1 sequence (P97438 1-411 isoform P97438-2)
# Description: as §1
# (§2) Single-channel recordings of K2P2.1 (TREK-1) tandem mutants were recorded in cell-attached mode using HEK293 cells 48 h after transfection. Acquisition and analysis was preformed using pCLAMP9 and an Axopatch 200B amplifier. Pipettes were pulled using a laser-based micropipette puller (P-2000, Sutter Instruments). Electrode resistance after filling with pipette internal solution ranged from 6 to 10 MΩ. Pipette solution contained the following: 150 mM KCl, 3.6 mM CaCl2, 10 mM HEPES (pH 7.4 with KOH). The bath solution was identical to the pipette solution. Po was measured from 30-120 s recordings of K2P2.1 (TREK-1) activity holding at −100 mV. Channel conductance of K2P2.1 (TREK-1) tandems were measured from 30-60s recordings at either −100 mV or +50 mV holding potential. Recordings of CAT335 activated channels were obtained by bath applying 20 μM CAT335 for 2 min to the coverslip before transferring to the recording chamber. This was necessary as application of CAT335 via perfusion or through the pipette solution activated slowly (>5 min), making it difficult to measure Po from fully activated channels. BL-1249 was applied at 20 μM in the bath solution via perfusion at 3 mL min^−1 (2-4 min). Data were analyzed using Clampfit 11 and GraphPad Prism 9.
# [2] = target: T3, WT-WT tandem K2P2.1 (TREK-1) (Mus musculus, UniProt P97438); assay: as above; conditions: 20 μM; for Change of open probability (Po activator/Po control): cell-attached, -100 mV
# T3 construct: expressed in transfected cells; host or cells: Xenopus laevis oocytes injected with mRNA
# T3 sequence (P97438 1-411 isoform P97438-2) 1: T1 sequence (P97438 1-411 isoform P97438-2)
# T3 sequence (P97438 1-411 isoform P97438-2) 2: T1 sequence (P97438 1-411 isoform P97438-2)
# Description: as §1, §2
# [3] = target: T4, CG*-CG* tandem K2P2.1 (TREK-1) (Mus musculus, UniProt P97438, S146C); assay: as above; conditions: 20 μM; for Change of open probability (Po activator/Po control): cell-attached, -100 mV
# T4 construct: expressed in transfected cells; host or cells: Xenopus laevis oocytes injected with mRNA
# T4 sequence (P97438 1-411 isoform P97438-2 S131C) 1: T1 sequence (P97438 1-411 isoform P97438-2) with S131C
# T4 sequence (P97438 1-411 isoform P97438-2 S131C) 2: T1 sequence (P97438 1-411 isoform P97438-2) with S131C
# Description: as §1, §2
SMILES,Fold-activation (I activator/I control) (K2P2.1 (TREK-1)) [fold],Change of open probability (Po activator/Po control) [1],Change of open probability (Po activator/Po control) [2],Change of open probability (Po activator/Po control) [3],Reversibility of activation on washout (K2P2.1 (TREK-1)),Effect on single channel conductance ([1]; -100 mV and +50 mV),Effect on single channel conductance ([2]; -100 mV and +50 mV),Effect on single channel conductance ([3]; -100 mV and +50 mV)
"CS(=O)(=O)Nc1ccc(C(=O)NCc2ccc(Cl)cc2Cl)cc1 [ML335, reference compound]",6.2 ± 0.5,–,–,–,–,–,–,–
"c1ccc(-c2nn[nH]n2)c(Nc2cccc3c2CCCC3)c1 [BL-1249, reference compound]",–,large increases in Po,large increases in Po,large increases in Po,–,–,–,–
O=C(NCc1ccc(Cl)cc1Cl)c1ccc(N2C(=O)C=CC2=O)cc1 [CAT335],1.9 ± 0.2,6.3,no impact on open probability,7.8,fully reversible,minimal to no effect on single channel conductance,minimal to no effect on single channel conductance,minimal to no effect on single channel conductance
